# Data as given in patent publication US20220274947A1, “NOVEL HETEROARYL-TRIAZOLE COMPOUNDS AS PESTICIDES” (Bayer Aktiengesellschaft, priority 2019, published 2022).
# Columns and labels:
# Format in all cases: in vivo
# Nilaparvata lugens = Nilaparvata lugens spray test; details: 96 h, rice plants, after 4 days; for mortality at 500 g/ha: application rate 500 g/ha; for mortality at 100 g/ha: application rate 100 g/ha
# Protocol: Nilaparvata lugens—Spray Test Solvent: 78.0 parts by weight of acetone • • 1.5 parts by weight of dimethylformamide Emulsifier: alkylarylpolyglycol ether
# (§1) To produce a suitable preparation of active compound, 1 part by weight of active compound is mixed with the stated amount of solvents and is diluted with water, containing an emulsifier concentration of 1000 ppm, to the desired concentration. Further test concentrations are prepared by dilution with emulsifier containing water.
# Rice plants (Oryza sativa) are sprayed with a preparation of the active ingredient of the desired concentration and the plants are infested with the brown planthopper (Nilaparvata lugens).
# After 4 days mortality in % is determined. 100% means all planthoppers have been killed and 0% means none of the planthoppers have been killed.
# Tetranychus urticae = Tetranychus urticae spray test, OP-resistant; details: foliar, 144 h, application rate 100 g/ha, French bean leaf disks, after 6 days
# Protocol: Tetranychus urticae—Spray Test OP-Resistant Solvent: 78.0 parts by weight acetone • 1.5 parts by weight dimethylformamide Emulsifier: alkylarylpolyglycol ether
# as §1
# French bean (Phaseolus vulgaris) leaf disks infected with all instars of the two spotted spidermite (Tetranychus urticae), are sprayed with a preparation of the active ingredient of the desired concentration.
# After 6 days mortality in % is determined. 100% means all spider mites have been killed and 0% means none of the spider mites have been killed.
# [1] = tested on: Blattella germanica strain PAULINIA; test: Blattella germanica test (BLTTGE surface treatment & contact assay); details: exposure 30 minutes, 24 hours after contact, read-out: efficacy (mortality); for mortality at 20 mg/m2: surface concentration 20 mg/m^2, glazed tile; for mortality at 4 mg/m2: surface concentration 4 mg/m^2, glazed tile
# Protocol: Blattella germanica Test (BLTTGE Surface Treatment & Contact Assay) Solvent: Aceton+2000 ppm rapeseed oil methyl ester (RME)
# In order to produce a sufficient, active ingredient containing solution it is necessary to solve the test compound in the solvent-mix (acetone at 2 mg/ml/RME 2000 ppm). This solution is pipetted onto a glazed tile and after evaporation of the acetone, adult animals of the species Blattella germanica strain […] are placed onto the dried surface. The exposure time is 30 minutes. Mortality in percent (%) is determined 24 hours after contact of the insects to the treated surface. 100% mortality means that all tested insects are dead, whereas 0% means that no insect died.
compound,measurement,setting,value
C[C@H](NC(=O)c1ccnc(C(F)(F)F)n1)c1ncnn1-c1ccc(C#N)cn1 [II-8],mortality at 500 g/ha,Nilaparvata lugens,100%
C[C@H](NC(=O)c1cc(Cl)cc(C(F)F)c1)c1ncnn1-c1ccc(C#N)cn1 [II-12],mortality at 100 g/ha,Tetranychus urticae,90%
"C[C@H](NC(=O)c1cc(C(F)(F)F)cc(C(F)(F)F)c1)c1ncnn1-c1ccc(C(=O)N(C)C2CC2)cn1 [II-38, 6-(5-{(1S)-1-[3,5-bis(trifluoromethyl)benzamido]ethyl}-1H-1,2,4-triazol-1-yl)-N-cyclopropyl-N-methylnicotinamide]",mortality at 100 g/ha,Tetranychus urticae,90%
C[C@H](NC(=O)c1cc(Cl)cc(C(F)(F)F)c1)c1ncnn1-c1cc(-n2cncn2)ccn1 [II-43],mortality at 500 g/ha,Nilaparvata lugens,90%
C[C@H](NC(=O)c1cc(C(F)(F)F)cc(C(F)(F)F)c1)c1ncnn1-c1ccc(C(=O)N(C)CC2CC2)cn1 [II-73],mortality at 500 g/ha,Nilaparvata lugens,100%
C[C@H](NC(=O)c1cc(OC(F)F)cc(OC(F)F)c1)c1ncnn1-c1ccc(C#N)cn1 [II-77],mortality at 20 mg/m2,[1],80 to 100%
C[C@H](NC(=O)c1cc(Br)cc(C(F)F)c1)c1ncnn1-c1ccc(C#N)cn1 [II-83],mortality at 20 mg/m2,[1],80 to 100%
Cc1nc([C@H](C)NC(=O)c2cc(C(F)(F)F)cc(C(F)(F)F)c2)n(-c2ccc(C(=O)N(C)C3CC3)cn2)n1 [II-96],mortality at 100 g/ha,Nilaparvata lugens,90%
Cc1nc([C@H](C)NC(=O)c2cc(C(F)(F)F)cc(C(F)(F)F)c2)n(-c2ccc(C(=O)N(C)CC#N)cn2)n1 [II-99],mortality at 100 g/ha,Tetranychus urticae,90%
same,mortality at 100 g/ha,Nilaparvata lugens,90%
C[C@H](NC(=O)c1cc(C(F)F)cc(C(F)F)c1)c1ncnn1-c1ccc(C#N)cn1 [II-101],mortality at 20 mg/m2,[1],80 to 100%
C[C@H](NC(=O)c1cc(OC(F)(F)F)cc(C(F)F)c1)c1ncnn1-c1ccc(C#N)cn1 [II-111],mortality at 4 mg/m2,[1],80 to 100%
same,mortality at 20 mg/m2,[1],80 to 100%
C[C@H](NC(=O)c1cc(OC(F)F)cc(C(F)F)c1)c1ncnn1-c1ccc(C#N)cn1 [II-116],mortality at 4 mg/m2,[1],80 to 100%
same,mortality at 20 mg/m2,[1],80 to 100%
